Data on four molecules can be found in article PMC12622905, “CYP71D8 and CYP82A2 catalyze the last committed step in biosynthesis of glyceollin isomers in soybean” (Plant Biotechnology, 2025).

Data set [1] addresses T1, CYP82A24 (Glycine max, UniProt I1MI36).
T1 construct: gene LOC100782866; synthetic gene in pYES2 (BamHI site); recombinant yeast BJ2168 microsomes with Lotus japonicus CPR
T1 sequence (I1MI36 1-521): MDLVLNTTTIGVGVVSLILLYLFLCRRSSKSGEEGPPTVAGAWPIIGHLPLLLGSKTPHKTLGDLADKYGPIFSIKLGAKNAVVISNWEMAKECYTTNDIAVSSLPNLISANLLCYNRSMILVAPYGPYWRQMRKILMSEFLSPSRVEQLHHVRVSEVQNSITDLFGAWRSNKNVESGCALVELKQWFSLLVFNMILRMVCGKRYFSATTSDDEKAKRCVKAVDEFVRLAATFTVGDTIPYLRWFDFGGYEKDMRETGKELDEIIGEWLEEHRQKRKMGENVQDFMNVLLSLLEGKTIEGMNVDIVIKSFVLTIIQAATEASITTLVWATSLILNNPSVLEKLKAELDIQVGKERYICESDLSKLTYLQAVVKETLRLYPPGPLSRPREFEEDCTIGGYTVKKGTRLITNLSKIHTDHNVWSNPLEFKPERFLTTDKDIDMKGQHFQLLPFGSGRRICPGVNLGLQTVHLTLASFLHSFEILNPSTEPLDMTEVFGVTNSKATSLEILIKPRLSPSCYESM
The data set can be described thus: HPLC of glyceollin III formation, recombinant yeast microsomes. It is filed as biochemical. The following applies: NADPH; potassium phosphate pH 7.5; 30°C.

Data set [2] has as its target T2, CYP71D145 (Glycine max, UniProt A0A0R0HDK6).
T2 construct: gene GLYMA_11G062500; full ORF in pYES2.1 TOPO; recombinant yeast BJ2168 microsomes with Lotus japonicus CPR
T2 sequence (A0A0R0HDK6 1-505): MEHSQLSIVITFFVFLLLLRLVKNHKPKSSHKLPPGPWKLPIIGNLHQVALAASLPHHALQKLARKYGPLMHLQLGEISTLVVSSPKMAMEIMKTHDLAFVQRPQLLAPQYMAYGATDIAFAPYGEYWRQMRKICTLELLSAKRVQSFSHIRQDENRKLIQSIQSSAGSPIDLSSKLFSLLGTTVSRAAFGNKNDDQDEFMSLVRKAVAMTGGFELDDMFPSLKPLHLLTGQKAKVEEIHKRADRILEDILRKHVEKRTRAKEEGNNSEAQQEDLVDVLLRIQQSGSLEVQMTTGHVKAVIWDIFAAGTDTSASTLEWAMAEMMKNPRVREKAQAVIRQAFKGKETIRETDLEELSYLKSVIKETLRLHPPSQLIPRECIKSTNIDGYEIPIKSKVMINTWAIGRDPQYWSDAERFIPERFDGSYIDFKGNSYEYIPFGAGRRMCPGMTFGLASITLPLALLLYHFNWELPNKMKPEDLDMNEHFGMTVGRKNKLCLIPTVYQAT
The experiment in a line: HPLC of glyceollin I formation, recombinant yeast microsomes. It counts as biochemical. To be noted: NADPH; potassium phosphate pH 7.5; 30°C, 5 h.

For data set [3], the target named is T3, CYP71D106 (Glycine max, UniProt K7K4H7).
T3 construct: gene LOC100817439; synthetic gene in pYES2 (BamHI site); recombinant yeast BJ2168 microsomes with Lotus japonicus CPR
T3 sequence (K7K4H7 1-503): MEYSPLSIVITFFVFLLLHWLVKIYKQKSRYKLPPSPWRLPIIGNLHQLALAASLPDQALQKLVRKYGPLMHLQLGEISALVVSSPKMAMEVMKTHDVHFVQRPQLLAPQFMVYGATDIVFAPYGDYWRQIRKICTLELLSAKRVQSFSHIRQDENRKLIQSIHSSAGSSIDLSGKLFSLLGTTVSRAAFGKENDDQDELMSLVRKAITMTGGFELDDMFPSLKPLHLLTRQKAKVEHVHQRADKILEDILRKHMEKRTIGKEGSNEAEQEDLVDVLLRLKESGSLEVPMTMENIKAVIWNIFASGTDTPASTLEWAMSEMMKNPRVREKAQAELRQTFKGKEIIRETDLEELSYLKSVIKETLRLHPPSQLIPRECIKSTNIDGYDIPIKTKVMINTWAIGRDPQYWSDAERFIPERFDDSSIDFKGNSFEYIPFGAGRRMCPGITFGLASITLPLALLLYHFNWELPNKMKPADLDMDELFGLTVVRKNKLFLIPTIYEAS
The description is as above. It is filed as biochemical. To be noted: NADPH; potassium phosphate pH 7.5; 30°C, 5 h.

Substrate in data set [4]: CC(C)=CCc1cc2c(cc1O)OC[C@@]1(O)c3ccc(O)cc3O[C@@H]21
The experiment in a line: HPLC of glyceollin III formation, recombinant yeast microsomes, Michaelis-Menten fit. It is filed as biochemical, Glycine max. The following applies: 2 mM NADPH, 0.1 M potassium phosphate pH 7.5, 10% sucrose, 14 mM 2-mercaptoethanol, 30°C, 20 min.

Substrate in data set [5]: CC(C)=CCc1c(O)ccc2c1OC[C@@]1(O)c3ccc(O)cc3O[C@@H]21
The data set can be described thus: HPLC of glyceollin I formation, recombinant yeast microsomes, Michaelis-Menten fit. It counts as biochemical, Glycine max. To be noted: 2 mM NADPH, 0.1 M potassium phosphate pH 7.5, 10% sucrose, 14 mM 2-mercaptoethanol, 30°C, 20 min.

Turning to `CC(C)=CCc1cc2c(cc1O)OC[C@@]1(O)c3ccc(O)cc3O[C@@H]21` [2DG, 2-dimethylallylglycinol], the “HPLC of glyceollin III formation, recombinant yeast microsomes” value in data set [1] was “CYP82A24 also exhibited GS3 activity with 2-dimethylallylglycinol”. As to `CC(C)=CCc1c(O)ccc2c1OC[C@@]1(O)c3ccc(O)cc3O[C@@H]21` [4DG, 4-dimethylallylglycinol], the “HPLC of glyceollin I formation, recombinant yeast microsomes” value in data set [2] is “CYP71D145 produced only glyceollin I in the enzyme assay”; in data set [3], “CYP71D106 yielded glyceollin I and two other unknown compounds (P1 and P2)”.

B1: CYP82A2 (GS3, glyceollin III synthase) (Glycine max) (protein)
chain: MELVLNSTTIGVGVVSLILLLYLFLRGGSWKSGEEGPPTVAGAWPIIGHLPLLLGSKTPHKTLGDLADKYGPIFSIKIGAKNAVVVSNWEMAKECYTTNDIAVSSLPDLISANLLCYNRSMIVVAPYGPYWRQLRKILMSEFLSPSRVEQLHHVRVSEVQSSITELFRDWRSNKNVQSGFATVELKQWFSLLVFNMILRMVCGKRYFSASTSDDEKANRCVKAVDEFVRLAATFTVGDAIPYLRWFDFGGYENDMRETGKELDEIIGEWLDEHRQKRKMGENVQDLMSVLLSLLEGKTIEGMNVDIVIKSFVLTVIQAGTEASITTLIWATSLILNNPSVLEKLKAELDIQVGKERYICESDLSKLTYLQAVVKETLRLYPPAPLSRPREFEEDCTIGGYTVKKGTRLITNLSKIHTDHNVWSNPLEFKPERFLTTDKDIDMKGQHFQLLPFGGGRRICPGINLGLQTVRLTLASFLHSFEILNPSTEPLDMTEVFRATNTKATPLEILIKPRLSPSCYESI
notes: full ORF in pYES2.1 TOPO; yeast BJ2168 microsomes co-expressing Lotus japonicus CPR
Take B1: the Michaelis-Menten constant (Km) (in general, the substrate concentration at which the rate is half of its maximum) in data set [4] was 9.5 ± 1.0 µM.

B2: CYP71D8 (GS1, glyceollin I synthase) (Glycine max) (protein)
chain: MEYSPLSIVITFFVFLLLHWLVKTYKQKSSHKLPPGPWRLPIIGNLHQLALAASLPDQALQKLVRKYGPLMHLQLGEISTLVVSSPKMAMEMMKTHDVHFVQRPQLLAPQFMVYGATDIAFAPYGDYWRQIRKICTLELLSAKRVQSFSHIRQDENKKLIQSIHSSAGSPIDLSGKLFSLLGTTVSRAAFGKENDDQDEFMSLVRKAITMTGGFEVDDMFPSLKPLHLLTRQKAKVEHVHQRADKILEDILRKHMEKRTRVKEGNGSEAEQEDLVDVLLRLKESGSLEVPMTMENIKAVIWNIFAAGTDTSASTLEWAMSEMMKNPKVKEKAQAELRQIFKGKEIIRETDLEELSYLKSVIKETLRLHPPSQLIPRECIISTNIDGYEIPIKTKVMINTWAIGRDPQYWSDADRFIPERFNDSSIDFKGNSFEYIPFGAGRRMCPGMTFGLASITLPLALLLYHFNWELPNKMKPEDLDMDEHFGMTVARKNKLFLIPTVYEAS
notes: as for B1
In the case of B2, in data set [5], the Michaelis constant (Km) was determined as 1.3 ± 0.2 µM.
